Measurements: US20120214736A1, “COMPOSITIONS AND METHODS FOR THE MODULATION OF JNK PROTEINS” (Isis Pharmaceuticals, Inc., priority 2006, published 2012)
e = 2'-O-(2-methoxyethyl) (MOE); d = 2'-deoxy (DNA)

Key:
Format in all cases: cell-based
[1] = system: human JNK2 mRNA; experiment: Northern analysis, human JNK2 mRNA in HuVEC cells (time course); conditions: 100 nM; 0-72 hours
Description: The human umbilical vein endothilial cell line HuVEC was obtained from Clonetics (Clonetics Corporation Walkersville, Md.). HuVEC cells were routinely cultured in EBM (Clonetics Corporation Walkersville, Md.) supplemented with SingleQuots supplements (Clonetics Corporation, Walkersville, Md.). […] Cells were seeded into 100 mm dishes and incubated overnight at 37° C./5% CO2. (Falcon-Primaria #3872).
(§1) When cells reached 70% confluency, they were treated with oligonucleotide. For cells grown in 10 cm dishes, cells were washed once with 5 ml PBS and then treated with 5 ml of OPTI-MEM-1 containing 3 ul LIPOFECTIN (Invitrogen Corporation, Carlsbad, Calif.)/100 nM oligonucleotide/ml OPTI-MEM-1. For other oligonucleotide concentrations the oligonucleotide/Lipofectin ration was held constant. […] Cells were harvested 16-24 hours after oligonucleotide treatment.
In accordance with the present invention, HuVEC cells were treated with 100 nM ISIS 101759 or the control oligonucleotide and mRNA levels of human JNK2 were monitored over a time-course of 0-72 hours and quantitated by Northern analysis.

[2] = system: human JNK2 mRNA; experiment: Northern analysis, human JNK2 mRNA in HeLa cells (dose response); conditions: 10, 50 or 200 nM
Description: The human cervix epithelial adenocarcinoma cell line HeLa was obtained from the American Type Culture Collection (Manassas, Va.). HeLa cells were routinely cultured in Minimum essential medium (Eagle) with 2 mM L-glutamine and Earle's BSS adjusted to contain 1.5 g/L sodium bicarbonate, 0.1 mM non-essential amino acids, and 1.0 mM sodium pyruvate, 90%; fetal bovine serum, 10% at a temperature of 37° C. Cells were seeded into 100 mm dishes and incubated overnight at 37° C./5% CO2
as §1
In accordance with the present invention, HeLa cells were treated with 10, 50 or 200 nM ISIS 101759 or the control oligonucleotide and mRNA levels of human JNK2 were quantitated by Northern analysis.

[3] = system: human JNK2 mRNA; experiment: Northern analysis, human JNK2 mRNA in Jurkat cells (electroporation, dose response); conditions: 1, 5 or 20 uM
Description: Jurkat cells were routinely cultured in RPMI Medium 1640 (Gibco/Life Technologies, Gaithersburg, Md.) supplemented with 20% fetal calf serum (Gibco/Life Technologies, Gaithersburg, Md.). Cells were routinely passaged by aspirating media that contained excess cells and replenishing with new media.
For electroporation, cells were diluted to 28×10^6 cells/mL and placed into 1 mm electroporation cuvettes. Electroporation is performed by treating with 1-20 μM oligonucleotide, at 160 Volts for 6 msec. The entire electroporated samples are then placed into 5 mL of 10% FBS/RPMI Medium 1640 in 100 mm plates. Plates are then left overnight at 37° C./5% CO2.
Each sample is then transferred to 15 mL conical tubes and spun down at 1200 rpm for 5 minutes followed by aspiration of the supernatant. Cells are then suspended in 5 mL PBS followed by a second centrifugation at 1200 rpm for 5 minutes followed by aspiration of the supernatant. Cells are then washed and lysed. Following the lysis step, total cellular RNA is then isolated using the RNEASY kit (Qiagen, Santa Clarita, Calif.) as described in other examples herein.
In accordance with the present invention, Jurkat cells were treated by electroporation with 1, 5 or 20 uM ISIS 101759 or the control oligonucleotide and mRNA levels of human JNK2 were quantitated by Northern analysis.

GsCsTsCsAsGsTsGsGsAsCsAsTsGsGsAsTsGsAsG (GCTCAGTGGACATGGATGAG; sugars from the 5' end e5 d10 e5, all phosphorothioate, methylation of C not given here) [ISIS 101759]
expression of human JNK2 in HuVEC cells [1]: capable of reducing the expression of human JNK2
expression of human JNK2 in HeLa cells [2]: capable of reducing the expression of human JNK2 in human HeLa cells in a dose-dependent manner
expression of human JNK2 in Jurkat cells [3]: capable of reducing the expression of human JNK2 in human Jurkat cells in a dose-dependent manner
